System: yeast genes (expressed mRNA)
Experiment: DNA chip measurement of expressed mRNA of yeast genes after culture with a toxic chemical substance
Format: cell-based, Saccharomyces cerevisiae S288C
Conditions: for level of expressed mRNA in the presence of chemical substance / level in the absence of chemical substance: cultured two hours with the chemical substance; for The level of expressed mRNA in the presence of chemical substance/The level of expressed mRNA in the absence of chemical substance: cultured two hours with substance
Method: Yeast (Saccharomyces cerevisiae S288C (a SUC2mal mel gap2 CUP1)) were cultured at 25° C. on YPD medium (yeast extract 1%, polypeptone 2%, glucose 2%). One of toxic chemical substances was added to the cell at logarithmic growth phase, and the cell was further cultured for two hours. Cell was cultured without any chemical substance in the same condition, and was used as a control. Concentrations of the chemical substances were defined to inhibit the growth of the yeast but not lead to death.
After the completion of cultivation, the culture was centrifuged to collect the cells. To the cells, sodium acetate buffer (50 mM sodium acetate, 10 mM EDTA, 1% SDS) was added, and the mixture was shaken at 65° C. for five minutes, followed by returning to room temperature, and obtaining the supernatant, which procedure was repeated two times. To the supernatant, ½ amount of a solution of phenol/chloroform (1:1) was added, and the mixture was centrifuged to give a supernatant, an equal amount of chloroform was added, and the mixture was centrifuged to give a supernatant. To the supernatant, an equal amount of isopropanol containing 0.3 M sodium acetate was added, and the mixture was allowed to stand at room temperature for 30 minutes, after which the mixture was centrifuged to give sediment of the whole RNAs. Seventy % ethanol was added to the sediment, and the mixture was again centrifuged to give sediment, which was then dried and dissolved in water. mRNA was isolated from the whole RNAs as followings. In view of the fact that a poly A chain is attached to the 3′ terminus of mRNA, a polynucleotide having a poly T structure which was immobilized on the surface of latex beads was used to trap the mRNA, and then the mRNA was washed and eluted with spine column (Oligotex-dT30<Super>mRNA Purification Kit, Takara). Reverse transcription of the mRNA was conducted with a reverse transcriptase (Super Script II Reverse Transcriptase; catalogue No. 18064-014, GibcoBRL) using fluorescence-labeled nucleotides to give cDNAs that were introduced with Cy3-dUTP or Cy5-dUTP during the reverse transcription.
The labeled cDNAs were dissolved in TE buffer (10 mM Tris-HCl/1 mM EDTA, pH 8.0), and the solution was dropped on the DNA chip containing the whole genes of yeast (DNA Chip Research Inc. Japan) so that the cDNAs were hybridized on the DNA chip at 65° C. for over 12 hours. The fluoresces intensity of the DNA chip was read with a scanner, and the ratio relative to the fluorescence intensity resulting from the absence of chemical substance was estimated as the following, which is shown in Tables 1 to 9.
In the Tables, “Intensity” indicated in the rightmost column is a value of the level of expressed mRNA of each gene in control cells as divided by the average level of the expressions of the whole genes. A gene of which mRNA level is lower in control, and is higher in cases of addition of chemical substance, is especially useful in the detection of toxic substances.
Here, when a ratio of an amount of mRNA expressed in the presence of the chemical substance to an amount of mRNA expressed in the absence of the chemical substance is two or more, then it is considered significant.

For [Cl][Pb][Cl] [(4), PbCl2], the “level of expressed mRNA in the presence of chemical substance / level in the absence of chemical substance” value (yeast gene YJL097W) was 1.6, the “The level of expressed mRNA in the presence of chemical substance/The level of expressed mRNA in the absence of chemical substance” value (yeast gene YJL151C) was 1.2 and the “The level of expressed mRNA in the presence of chemical substance/The level of expressed mRNA in the absence of chemical substance” value (yeast gene YJL152W) was 1.3. For the same compound, the “The level of expressed mRNA in the presence of chemical substance/The level of expressed mRNA in the absence of chemical substance” value (yeast gene YJL161W) was 4.6, the “The level of expressed mRNA in the presence of chemical substance/The level of expressed mRNA in the absence of chemical substance” value (yeast gene YJL171C) was 1.4 and the “The level of expressed mRNA in the presence of chemical substance/The level of expressed mRNA in the absence of chemical substance” value (yeast gene YJR008W) was 1.7. For the same compound, the “level of expressed mRNA in the presence of chemical substance / level in the absence of chemical substance” value (yeast gene YJR030C) was 1.2, the “The level of expressed mRNA in the presence of chemical substance/The level of expressed mRNA in the absence of chemical substance” value (yeast gene YJR054W) was 0.9 and the “level of expressed mRNA in the presence of chemical substance / level in the absence of chemical substance” value (yeast gene YKL051W) was 0.8. The “The level of expressed mRNA in the presence of chemical substance/The level of expressed mRNA in the absence of chemical substance” value (yeast gene YKL071W) was 2.8, the “The level of expressed mRNA in the presence of chemical substance/The level of expressed mRNA in the absence of chemical substance” value (yeast gene YKL086W) was 2.6 and the “level of expressed mRNA in the presence of chemical substance / level in the absence of chemical substance” value (yeast gene YKL097C) was 1.4. The “level of expressed mRNA in the presence of chemical substance / level in the absence of chemical substance” value (yeast gene YKL100C) was 1.6, the “The level of expressed mRNA in the presence of chemical substance/The level of expressed mRNA in the absence of chemical substance” value (yeast gene YKL151C) was 2.5 and the “The level of expressed mRNA in the presence of chemical substance/The level of expressed mRNA in the absence of chemical substance” value (yeast gene YKL153W) was 0.7. The “The level of expressed mRNA in the presence of chemical substance/The level of expressed mRNA in the absence of chemical substance” value (yeast gene YKL195W) was 1.1, the “level of expressed mRNA in the presence of chemical substance / level in the absence of chemical substance” value (yeast gene YKR040C) was 2.9 and the “The level of expressed mRNA in the presence of chemical substance/The level of expressed mRNA in the absence of chemical substance” value (yeast gene YKR091W) was 3.5. For the same compound, the “The level of expressed mRNA in the presence of chemical substance/The level of expressed mRNA in the absence of chemical substance” value (yeast gene YLR054C) was 2.4, the “The level of expressed mRNA in the presence of chemical substance/The level of expressed mRNA in the absence of chemical substance” value (yeast gene YLR149C) was 2.3 and the “The level of expressed mRNA in the presence of chemical substance/The level of expressed mRNA in the absence of chemical substance” value (yeast gene YLR152C) was 0.9. For the same compound, the “The level of expressed mRNA in the presence of chemical substance/The level of expressed mRNA in the absence of chemical substance” value (yeast gene YLR194C) was 3.6, the “level of expressed mRNA in the presence of chemical substance / level in the absence of chemical substance” value (yeast gene YLR226W) was 1.0 and the “The level of expressed mRNA in the presence of chemical substance/The level of expressed mRNA in the absence of chemical substance” value (yeast gene YLR324W) was 1.0. The “level of expressed mRNA in the presence of chemical substance / level in the absence of chemical substance” value (yeast gene YLR338W) was 1.1, the “The level of expressed mRNA in the presence of chemical substance/The level of expressed mRNA in the absence of chemical substance” value (yeast gene YLR350W) was 2.3 and the “The level of expressed mRNA in the presence of chemical substance/The level of expressed mRNA in the absence of chemical substance” value (yeast gene YLR387C) was 0.6. For the same compound, the “level of expressed mRNA in the presence of chemical substance / level in the absence of chemical substance” value (yeast gene YLR392C) was 1.9, the “level of expressed mRNA in the presence of chemical substance / level in the absence of chemical substance” value (yeast gene YLR427W) was 0.5 and the “The level of expressed mRNA in the presence of chemical substance/The level of expressed mRNA in the absence of chemical substance” value (yeast gene YLR460C) was 1.1. The “level of expressed mRNA in the presence of chemical substance / level in the absence of chemical substance” value (yeast gene YML013W) was 0.6, the “level of expressed mRNA in the presence of chemical substance / level in the absence of chemical substance” value (yeast gene YML029W) was 1.0 and the “level of expressed mRNA in the presence of chemical substance / level in the absence of chemical substance” value (yeast gene YML041C) was 1.0. The “level of expressed mRNA in the presence of chemical substance / level in the absence of chemical substance” value (yeast gene YML079W) was 1.5, the “The level of expressed mRNA in the presence of chemical substance/The level of expressed mRNA in the absence of chemical substance” value (yeast gene YML117W) was 1.6 and the “The level of expressed mRNA in the presence of chemical substance/The level of expressed mRNA in the absence of chemical substance” value (yeast gene YMR009W) was 1.9. The “The level of expressed mRNA in the presence of chemical substance/The level of expressed mRNA in the absence of chemical substance” value (yeast gene YMR067C) was 0.4, the “level of expressed mRNA in the presence of chemical substance / level in the absence of chemical substance” value (yeast gene YMR068W) was 1.5 and the “level of expressed mRNA in the presence of chemical substance / level in the absence of chemical substance” value (yeast gene YMR071C) was 1.9. For the same compound, the “The level of expressed mRNA in the presence of chemical substance/The level of expressed mRNA in the absence of chemical substance” value (yeast gene YMR090W) was 3.5, the “The level of expressed mRNA in the presence of chemical substance/The level of expressed mRNA in the absence of chemical substance” value (yeast gene YMR095C) was 1.0 and the “The level of expressed mRNA in the presence of chemical substance/The level of expressed mRNA in the absence of chemical substance” value (yeast gene YMR097C) was 1.6. The “The level of expressed mRNA in the presence of chemical substance/The level of expressed mRNA in the absence of chemical substance” value (yeast gene YMR102C) was 0.8, the “The level of expressed mRNA in the presence of chemical substance/The level of expressed mRNA in the absence of chemical substance” value (yeast gene YMR107W) was 18.4 and the “level of expressed mRNA in the presence of chemical substance / level in the absence of chemical substance” value (yeast gene YMR160W) was 1.2. The “The level of expressed mRNA in the presence of chemical substance/The level of expressed mRNA in the absence of chemical substance” value (yeast gene YMR180C) was 1.3, the “The level of expressed mRNA in the presence of chemical substance/The level of expressed mRNA in the absence of chemical substance” value (yeast gene YMR184W) was 1.1 and the “The level of expressed mRNA in the presence of chemical substance/The level of expressed mRNA in the absence of chemical substance” value (yeast gene YMR191W) was 1.6. For the same compound, the “The level of expressed mRNA in the presence of chemical substance/The level of expressed mRNA in the absence of chemical substance” value (yeast gene YMR295C) was 1.6, the “The level of expressed mRNA in the presence of chemical substance/The level of expressed mRNA in the absence of chemical substance” value (yeast gene YMR316W) was 1.9 and the “level of expressed mRNA in the presence of chemical substance / level in the absence of chemical substance” value (yeast gene YNL026W) was 0.8. The “The level of expressed mRNA in the presence of chemical substance/The level of expressed mRNA in the absence of chemical substance” value (yeast gene YNL044W) was 1.3.

From patent publication US20100041089A1, “IMPROVED METHOD FOR DETECTING CHEMICAL […]” (priority 2006, published 2010)
